Read-outs that look alike come from different tables or passages of the source.
Tests used:
[1] = tested on: Leishmania major promastigotes; experiment: Parasite viability MTT assay, L. major promastigotes; format: cell-based; conditions: Leishmania major, 48 h, promastigotes, MTT assay, mean ± SD, read-out: IC50 Leishmania major
Description: (§1) The cytotoxic activities of all the derivatives against Leishmania major and Leishmania infantum promastigotes were studied by the MTT assay after exposing the parasites to five different concentrations of each compound for 48 h. Miltefosine and paromomycin, two currently available drugs for the treatment of leishmaniasis, were used as positive controls.
(§2) L. major (clone VI, MHOM/IL/80/Friendlin) and L. infantum (BCN-150) promastigotes were grown in continuous stirred M199 1X medium (Sigma, St Louis, MO, USA) at 26 °C supplemented with 25 mM HEPES (pH 7.2), 10% heat-inactivated FBS (Gibco, Gaithersburg, MD, USA), 0.1 mM adenine, 0.0005% (w/v) hemin, 0.0001% (w/v) biotin, 100 UI/mL penicillin and […] streptomycin (Gibco, Gaithersburg, MD, USA). Media were changed before each experiment to achieve exponential growth.
(§3) The antileishmanial activity was assessed by the MTT assay as previously described. Briefly, 3 × 10^6 promastigotes of both Leishmania strains were placed into a 96-well plate with supplemented M199 1X medium during their logarithmic growth phase. The parasites were treated with five increasing concentrations of the compounds ranging between 0.1 and 1000 µM at 26 °C for 48 h. At the termination point, 20 µL of MTT (5 mg/mL) was added and further incubated for 4 h. The resultant formazan crystals formed were dissolved in 80 µL of DMSO and the absorbance was measured at 550 nm on a microplate reader. IC50 values were calculated using OriginPro 8.5.1. software by nonlinear curve fitting. Miltefosine and paromomycin were used as reference drugs. Data were obtained from at least three independent experiments performed in triplicates.

[2] = tested on: E. coli; experiment: MIC and MBC assay, E. coli; format: cell-based, Escherichia coli; conditions: Escherichia coli; Gram-negative, 24 h at 37 °C
Description: (§4) The minimum inhibitory concentration (MIC) and the minimum bactericidal concentration (MBC) values of the selenocompounds were determined in a panel of six bacterial strains as a first approach to assess their antibacterial activity. Thus, the synthesized derivatives were tested against the Gram-negative bacteria Escherichia coli (E. coli), Klebsiella pneumoniae (K. pneumoniae) and Citrobacter freundii (C. freundii); and the Gram-positive bacteria Staphylococcus aureus (S. aureus), Streptococcus faecalis (S. faecalis), and Staphylococcus epidermidis (S. epidermidis). […]
(§5) All the selenocompounds were screened for their in vitro inhibitory activity against three Gram-negative (E. coli, K. pneumoniae and C. freundii) and three Gram-positive (S. aureus, S. faecalis and S. epidermidis) bacteria. Bacterial strains were kindly provided by the Department of Microbiology and Parasitology of the University of Navarra. The bacterial cells were grown in tryptic soy agar (TSA) plates and maintained at 4 °C.
(§6) The compounds were firstly dissolved in DMSO and serially diluted in a 96-well plate in tryptic soy broth (TSB) with eleven concentrations ranging from 400 µg/mL to 0.4 µg/mL with a final volume of 100 µL. Subsequently, 100 µL of a diluted suspension of bacterial cells with an optical density of 0.125 measured at 600 nm in TSB (inoculum of approximately 10^5 CFU/mL) was added to each well and incubated at 37 °C for 24 h. After the incubation period, each well was analyzed for the presence or absence of visual growth of bacterial cells. The lowest concentration of the test compound at which no visible growth occurred was determined as the MIC values. After incubation, 10 µL of the bacterial suspension from each well that presented antibacterial activity was added to divided TSA plates and incubated at 37 °C overnight.

[3] = tested on: MCF-7; experiment: Antiproliferative MTT assay, MCF-7 breast cancer cells; format: cell-based, human; conditions: MTT assay, 48 h, mean ± SD
Description: (§7) The antiproliferative activities of the cinnamyl and benzodioxyl derivatives were assessed against six human cell lines of three different types of cancer (colon, lung, and breast) using the 3-(4,5-dimethylthiazol-2-yl)-2,5-diphenyltetrazolium bromide (MTT) assay at seven concentrations for 48 h. The results are expressed as the IC50 values and are outlined in Table 1.
(§8) The cell lines were obtained from the American Type Culture Collection (ATCC). All the cancer cell lines (HT-29, HCT-116, H1299, HTB-54, MDA-MB-231 and MCF-7) and the nontumorigenic cells (184B5) were maintained in RPMI 1640 medium (Gibco), supplemented with 10% fetal bovine serum (FBS; Gibco) and 1% antibiotics (10.00 units/mL penicillin and 10.00 mg/mL streptomycin; Gibco). Cells were preserved in tissue culture flasks at 37 °C and 5% CO2. Culture medium was replaced every three days.
(§9) The cytotoxic effect of each compound was initially tested at seven different concentrations ranging between 0.5 and 100 µM in the cell lines mentioned above. The cells were seeded (1 × 10^4 cells per well) in 96-well plates and incubated at 37 °C and 5% CO2 for 24 h. After attachment, cells were treated with either dimethyl sulfoxide (DMSO) or increasing concentrations of the corresponding selenocompound for 48 h. The effect of the compounds on cell viability was determined by the MTT assay. In brief, 20 µL of MTT (5 mg/mL) was added to each well 2.5 h prior to experiment termination. At the end of the incubation, the medium was removed, and the formazan crystals were dissolved in 50 µL of DMSO. Absorbance was measured at 550 nm on a microplate reader. IC50 values were calculated using OriginPro 8.5.1. software by nonlinear curve fitting. Selectivity indexes were calculated as the ratio of the IC50 values determined for the nonmalignant and the tumoral cells in the breast cell lines (IC50 (184B5)/IC50 (MDA-MB-231) and IC50 (184B5)/IC50 (MCF-7)). Data were obtained from at least three independent experiments performed in triplicates.

[4] = tested on: S. faecalis; experiment: MIC and MBC assay, S. faecalis; format: cell-based, Streptococcus faecalis; conditions: Enterococcus faecalis; Gram-positive, 24 h at 37 °C; read-out: MIC S. faecalis
Description: as §4, §5, §6

[5] = tested on: HCT-116; experiment: Antiproliferative MTT assay, HCT-116 colon cancer cells; format: cell-based, human; conditions: MTT assay, 48 h, mean ± SD, read-out: IC50 HCT-116
Description: as §7, §8, §9

[6] = tested on: K. pneumoniae; experiment: MIC and MBC assay, K. pneumoniae; format: cell-based, Klebsiella pneumoniae; conditions: Klebsiella pneumoniae; Gram-negative, 24 h at 37 °C; read-out: MIC K. pneumoniae
Description: as §4, §5, §6

[7] = tested on: MDA-MB-231; experiment: Antiproliferative MTT assay, MDA-MB-231 breast cancer cells; format: cell-based, human; conditions: Homo sapiens, MDA-MB-231; MTT assay, 48 h, mean ± SD; read-out: IC50 MDA-MB-231
Description: as §7, §8, §9

[8] = tested on: HTB-54; experiment: Antiproliferative MTT assay, HTB-54 lung cancer cells; format: cell-based, human; conditions: Homo sapiens, HTB-54; MTT assay, 48 h, mean ± SD; read-out: IC50 HTB-54
Description: as §7, §8, §9

[9] = tested on: S. epidermidis; experiment: MIC and MBC assay, S. epidermidis; format: cell-based, Staphylococcus epidermidis; conditions: Staphylococcus epidermidis; Gram-positive, 24 h at 37 °C; read-out: MIC S. epidermidis
Description: as §4, §5, §6

[10] = tested on: Leishmania infantum promastigotes; experiment: Parasite viability MTT assay, L. infantum promastigotes; format: cell-based; conditions: Leishmania infantum, 48 h, promastigotes, MTT assay, mean ± SD, read-out: IC50 Leishmania infantum
Description: as §1, §2, §3

[11] = tested on: S. aureus; experiment: MIC and MBC assay, S. aureus; format: cell-based, Staphylococcus aureus; conditions: Staphylococcus aureus; Gram-positive, 24 h at 37 °C
Description: as §4, §5, §6

[12] = tested on: HT-29; experiment: Antiproliferative MTT assay, HT-29 colon cancer cells; format: cell-based, human; conditions: MTT assay, 48 h, mean ± SD, read-out: IC50 HT-29
Description: as §7, §8, §9

[13] = tested on: 184B5; experiment: MTT assay in nonmalignant mammary gland cells 184B5; format: cell-based; conditions: nontumorigenic cells, MTT assay, 48 h, mean ± SD
Description: To assess their possible selectivity, the synthesized selenocompounds were then tested in a mammary gland (184B5) nonmalignant cell line, and the selectivity indexes (SI) were determined as the ratio of the IC50 values obtained for the nonmalignant cells and the homolog cancer cells.
as §8, §9

[14] = tested on: C. freundii; experiment: MIC and MBC assay, C. freundii; format: cell-based, Citrobacter freundii; conditions: Citrobacter freundii; Gram-negative, 24 h at 37 °C; read-out: MIC C. freundii
Description: as §4, §5, §6

Row | IC50 [1] | SMILES | MIC [2] | IC50 ([3]; Homo sapiens, MCF7, read-out: IC50 MCF-7) | IC50 MCF-7 [3] | MIC [4] | IC50 ([5]; Homo sapiens, HCT-116, 48 h) | IC50 [5] | MIC [6] | IC50 [7] | IC50 [8] | MIC [9] | melting point | IC50 [10] | MIC [11] | IC50 ([12]; Homo sapiens, HT-29, 48 h) | IC50 [12] | IC50 ([13]; Homo sapiens, 184B5, 48 h, read-out: IC50 184B5) | IC50 184B5 [13] | MIC [14]
1 | 66.6 ± 11.6 µM | CCCCCCCCCCCCCCCCOP(=O)([O-])OCC[N+](C)(C)C [Miltefosine, reference compound] | – | – | – | – | – | – | – | – | – | – | – | – | – | – | – | – | – | –
2 | 71 ± 3.3 µM | NC[C@@H]1O[C@H](O[C@H]2[C@@H](O)[C@H](O[C@@H]3[C@@H](O)[C@H](N)C[C@H](N)[C@H]3O[C@H]3O[C@H](CO)[C@@H](O)[C@H](O)[C@H]3N)O[C@@H]2CO)[C@H](N)[C@@H](O)[C@@H]1O [Paromomycin, reference compound] | – | – | – | – | – | – | – | – | – | – | – | 18 ± 1 µM | – | – | – | – | – | –

Row | SMILES | IC50 [1] | MIC [2] | IC50 ([3]; Homo sapiens, MCF7, read-out: IC50 MCF-7) | IC50 MCF-7 [3] | MIC [4] | IC50 ([5]; Homo sapiens, HCT-116, 48 h) | IC50 [5] | MIC [6] | IC50 [7] | IC50 [8] | MIC [9] | melting point | IC50 [10] | MIC [11] | IC50 ([12]; Homo sapiens, HT-29, 48 h) | IC50 [12] | IC50 ([13]; Homo sapiens, 184B5, 48 h, read-out: IC50 184B5) | IC50 184B5 [13] | MIC [14]
3 | c1cc2c(cc1C[Se][Se]Cc1ccc3c(c1)OCO3)OCO2 [Compound 2b, 1,2-Bis(benzo[d][1,3]dioxol-5-ylmethyl)diselenide] | 49.4 ± 16.7 µM | > 200 µg/mL | > 100 µM | completely inactive | > 200 µg/mL | ~11 µM | 11.3 ± 1 µM | > 200 µg/mL | 46.6 ± 12.1 µM | 41.6 ± 9.4 µM | > 200 µg/mL | 78 to 80 °C | 56.1 ± 8.1 µM | > 200 µg/mL | < 12 µM | 10.1 ± 1.2 µM | > 100 µM | did not display any activity | > 200 µg/mL

— PMC9656702, “Unveiling a New Selenocyanate as a Multitarget Candidate with Anticancer, Antileishmanial and Antibacterial Potential” (Molecules, 2022)
